Assays:
clinical = conditions: human, in vivo, other: aerosol spray, 20 mg
Description: Elimination rate constant in human at 20 mg using aerosol spray measured for 6 weeks

[1] = Elimination half-life in human at 10 mg using oromucosal-spray formulation measured upto 24 hrs by LC-MS/MS assay; type: ADME; conditions: in vivo, read-out: beta t1/2 (converted)
Cytochrome P450 1A1 = target: T1, Cytochrome P450 1A1 (Homo sapiens, UniProt P04798); assay: Competitive inhibition of human recombinant CYP1A1 using 7-Ethoxyresorufin as substrate by Lineweaver-Burk plot analysis; type: ADME; conditions: read-out: Ki(app)
T1 sequence (P04798 whole entry): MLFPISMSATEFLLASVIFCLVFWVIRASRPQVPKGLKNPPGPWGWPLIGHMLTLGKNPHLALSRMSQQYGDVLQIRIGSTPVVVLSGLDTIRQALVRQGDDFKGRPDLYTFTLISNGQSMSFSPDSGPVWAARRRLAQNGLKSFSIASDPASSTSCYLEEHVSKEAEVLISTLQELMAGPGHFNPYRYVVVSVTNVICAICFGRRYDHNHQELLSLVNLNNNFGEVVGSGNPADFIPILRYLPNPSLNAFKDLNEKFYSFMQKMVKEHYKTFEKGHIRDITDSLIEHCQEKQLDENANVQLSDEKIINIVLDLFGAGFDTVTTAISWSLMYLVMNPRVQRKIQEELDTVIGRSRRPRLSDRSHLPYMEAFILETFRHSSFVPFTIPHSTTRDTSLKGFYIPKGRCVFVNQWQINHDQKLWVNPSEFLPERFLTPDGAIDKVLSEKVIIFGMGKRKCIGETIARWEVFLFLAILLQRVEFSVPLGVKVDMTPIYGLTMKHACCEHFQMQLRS

Histamine H3 receptor = Histamine H3 receptor (Homo sapiens, UniProt Q9Y5N1); assay: Inhibition of histamine H3 receptor (unknown origin)
Chain of Histamine H3 receptor (Q9Y5N1 whole entry): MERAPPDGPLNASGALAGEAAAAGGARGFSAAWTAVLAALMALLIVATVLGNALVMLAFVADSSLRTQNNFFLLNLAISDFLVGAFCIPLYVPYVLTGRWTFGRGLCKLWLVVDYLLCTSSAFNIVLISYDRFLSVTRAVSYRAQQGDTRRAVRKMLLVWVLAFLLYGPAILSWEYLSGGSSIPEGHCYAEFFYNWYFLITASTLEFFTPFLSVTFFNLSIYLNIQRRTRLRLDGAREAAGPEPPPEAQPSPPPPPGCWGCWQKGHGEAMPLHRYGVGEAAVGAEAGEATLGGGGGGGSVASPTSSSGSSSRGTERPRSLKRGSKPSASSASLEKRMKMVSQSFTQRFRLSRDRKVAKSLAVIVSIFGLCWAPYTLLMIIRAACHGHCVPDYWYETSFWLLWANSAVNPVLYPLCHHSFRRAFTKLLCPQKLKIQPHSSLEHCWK

[2] = target: T2, Steroid 17-alpha-hydroxylase/17,20 lyase (Rattus norvegicus, UniProt P11715); assay: Mixed type inhibition of CYP17 in Sprague-Dawley rat testis microsomes assessed as reduction in 17alpha-Hydroxylase activity in presence of NADPH-generating system incubated for 2 mins by Lineweaver-Burk plot analysis; type: ADME
T2 sequence (P11715 whole entry): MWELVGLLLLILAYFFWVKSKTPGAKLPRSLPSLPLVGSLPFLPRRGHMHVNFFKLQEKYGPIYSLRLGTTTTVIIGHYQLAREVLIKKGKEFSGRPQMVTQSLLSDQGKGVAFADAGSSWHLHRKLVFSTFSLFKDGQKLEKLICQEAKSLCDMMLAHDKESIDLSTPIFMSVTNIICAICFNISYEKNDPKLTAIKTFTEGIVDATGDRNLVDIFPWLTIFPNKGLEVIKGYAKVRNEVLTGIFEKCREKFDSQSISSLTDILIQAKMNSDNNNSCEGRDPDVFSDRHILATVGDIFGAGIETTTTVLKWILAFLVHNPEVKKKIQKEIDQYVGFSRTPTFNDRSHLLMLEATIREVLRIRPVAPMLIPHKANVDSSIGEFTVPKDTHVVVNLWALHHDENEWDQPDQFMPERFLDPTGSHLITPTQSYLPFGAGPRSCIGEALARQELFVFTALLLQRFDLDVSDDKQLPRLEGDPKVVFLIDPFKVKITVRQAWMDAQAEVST

Cytochrome P450 2C11 = target: T3, Cytochrome P450 2C11 (Rattus norvegicus, UniProt P08683); assay: Competitive inhibition of CYP2C11 in rat liver microsomes; type: ADME
T3 sequence (P08683 whole entry): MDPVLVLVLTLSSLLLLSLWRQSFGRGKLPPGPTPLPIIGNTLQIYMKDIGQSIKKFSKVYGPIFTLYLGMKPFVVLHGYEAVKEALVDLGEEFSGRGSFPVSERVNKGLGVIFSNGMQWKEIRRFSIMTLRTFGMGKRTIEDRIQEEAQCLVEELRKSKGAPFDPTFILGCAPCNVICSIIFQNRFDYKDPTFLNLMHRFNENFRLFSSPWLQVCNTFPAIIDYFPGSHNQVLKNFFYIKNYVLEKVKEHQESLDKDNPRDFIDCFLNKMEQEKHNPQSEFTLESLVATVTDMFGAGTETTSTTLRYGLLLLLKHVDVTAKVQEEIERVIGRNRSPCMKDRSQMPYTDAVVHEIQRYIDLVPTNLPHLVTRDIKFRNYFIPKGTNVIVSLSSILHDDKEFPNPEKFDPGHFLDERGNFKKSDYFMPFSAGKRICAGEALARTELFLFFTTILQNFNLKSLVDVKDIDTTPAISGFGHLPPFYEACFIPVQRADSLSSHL

[3] = target: T4, Alpha-2B adrenergic receptor (Homo sapiens, UniProt P18089); assay: Inhibition of alpha2B receptor (unknown origin)
T4 sequence (P18089 whole entry): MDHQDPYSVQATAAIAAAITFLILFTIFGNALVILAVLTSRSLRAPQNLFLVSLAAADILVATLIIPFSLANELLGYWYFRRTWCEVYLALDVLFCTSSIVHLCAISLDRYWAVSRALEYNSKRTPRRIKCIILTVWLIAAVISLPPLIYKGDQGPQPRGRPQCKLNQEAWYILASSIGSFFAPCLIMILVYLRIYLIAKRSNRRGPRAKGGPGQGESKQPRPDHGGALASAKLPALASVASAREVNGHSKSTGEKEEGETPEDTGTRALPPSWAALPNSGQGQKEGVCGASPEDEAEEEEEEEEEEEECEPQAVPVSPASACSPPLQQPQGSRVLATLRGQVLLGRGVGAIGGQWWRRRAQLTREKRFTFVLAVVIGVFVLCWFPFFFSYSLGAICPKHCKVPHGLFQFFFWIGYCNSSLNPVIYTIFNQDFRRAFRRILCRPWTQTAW

[4] = Cmax in mouse brain at 10 mg/kg, sc measured after 1 to 3 hrs by HPLC analysis; type: ADME, organism-based; set-up: route subcutaneous, time lower 1 hrs, dose 10 mg/kg, time upper 3 hrs
[5] = Half-life in human at 20 mg, iv measured after 0.05 to 72 hrs by gas chromatograph mass spectrometry; type: ADME, organism-based; conditions: in vivo, time 0.05-72 hrs
Cytochrome P450 2B6 = target: T5, Cytochrome P450 2B6 (Homo sapiens, UniProt P20813); assay: Mixed type inhibition of human recombinant CYP2B6 expressed in baculovirus-infected insect cells using […] as substrate preincubated for 5 mins followed by NADPH-generating system addition by Lineweaver-Burk plot analysis; type: ADME
T5 sequence (P20813 whole entry): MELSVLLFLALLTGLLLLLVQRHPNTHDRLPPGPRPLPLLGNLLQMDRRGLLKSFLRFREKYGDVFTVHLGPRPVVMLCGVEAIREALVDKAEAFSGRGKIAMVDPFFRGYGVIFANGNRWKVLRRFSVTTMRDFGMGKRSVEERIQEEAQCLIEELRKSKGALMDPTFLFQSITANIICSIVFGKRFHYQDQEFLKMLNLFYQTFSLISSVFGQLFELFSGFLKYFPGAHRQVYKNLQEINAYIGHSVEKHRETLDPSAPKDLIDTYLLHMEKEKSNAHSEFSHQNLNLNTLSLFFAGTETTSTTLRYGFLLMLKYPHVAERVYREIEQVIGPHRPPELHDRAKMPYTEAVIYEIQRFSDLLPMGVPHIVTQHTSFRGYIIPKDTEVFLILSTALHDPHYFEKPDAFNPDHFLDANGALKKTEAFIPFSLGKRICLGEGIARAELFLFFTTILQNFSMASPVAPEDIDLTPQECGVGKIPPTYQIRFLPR

Work on C=C(C)[C@@H]1CCC(C)=C[C@H]1c1c(O)cc(CCCCC)cc1O [CANNABIDIOL] yielded a k el at 1008 h (clinical) of 0.000119 s⁻¹, a half-life [1] of 120 min and a Ki (Cytochrome P450 1A1) of 160 nM. For the same compound, the Ki (Histamine H3 receptor) was 3.1 µM, the Ki [2] was 124 µM and the Ki (Cytochrome P450 2C11) was 20.7 µM. The Ki [3] was 3.2 µM, the Cmax [4] was 1000 nM and the half-life [5] was 1440 min. For the same compound, the Ki (Cytochrome P450 2B6) was 690 nM.
